# According to patent publication US12473304B2, “Heterocyclic PAD4 inhibitors” (BRISTOL-MYERS SQUIBB COMPANY, priority 2020, dated 2025):
# Target: human PAD4 (hPAD4) (Homo sapiens (Human), UniProt Q9UM07)
# Test: RFMS Human PAD4 Functional Assay 1
# Format: biochemical
# Settings: RFMS assay 1; 5 nM hPAD4, 250 μM BAEE substrate, 50 μM calcium, 37° C.
# Outline: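 Citrullination product read by RapidFire triple-quad MRM against a modified-citrulline internal standard, after TCA stop and 30 min phenyl glyoxal step at 37 °C. Reaction: 250 μM BAEE, 5 nM human PAD4, 90 min at 37 °C, pH 7.5 HEPES buffer with 50 μM calcium and 5 μM TPEN, following 30 min compound–enzyme preincubation (max 50 μM).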
# human PAD4 (hPAD4), sequence (Q9UM07 whole entry): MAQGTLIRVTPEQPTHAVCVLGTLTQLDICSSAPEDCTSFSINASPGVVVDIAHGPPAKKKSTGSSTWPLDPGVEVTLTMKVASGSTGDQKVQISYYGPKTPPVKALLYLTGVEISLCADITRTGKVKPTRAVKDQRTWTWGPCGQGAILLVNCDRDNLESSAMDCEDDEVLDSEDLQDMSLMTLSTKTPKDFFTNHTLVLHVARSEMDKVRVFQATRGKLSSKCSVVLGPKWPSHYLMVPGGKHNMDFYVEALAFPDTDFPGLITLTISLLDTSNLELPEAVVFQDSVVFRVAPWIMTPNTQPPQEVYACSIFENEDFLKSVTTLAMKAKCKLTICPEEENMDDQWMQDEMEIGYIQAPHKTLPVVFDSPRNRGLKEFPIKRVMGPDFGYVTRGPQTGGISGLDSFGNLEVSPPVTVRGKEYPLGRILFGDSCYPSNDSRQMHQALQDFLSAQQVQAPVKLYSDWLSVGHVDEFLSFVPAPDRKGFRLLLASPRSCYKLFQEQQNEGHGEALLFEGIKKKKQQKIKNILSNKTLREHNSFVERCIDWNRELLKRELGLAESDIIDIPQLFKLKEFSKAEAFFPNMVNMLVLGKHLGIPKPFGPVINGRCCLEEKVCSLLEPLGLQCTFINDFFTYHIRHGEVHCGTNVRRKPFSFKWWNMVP
row,IC50 [µM],Structure (SMILES)
1,0.04,"Cc1c(-c2cc3ccnc(OCCn4cnnc4)c3n2CC2CC2)nn2cc(C(=O)N3CCC[C@@H](N)C3)ccc12 [Example 609, (R)-(2-(7-(2-(4H-1,2,4-Triazol-4-yl)ethoxy)-1-(cyclopropylmethyl)-1H-pyrrolo[2,3-c]pyridin-2-yl)-3-methylpyrazolo[1,5-a]pyridin-6-yl)(3-aminopiperidin-1-yl)methanone]"
2,0.43,"Cc1c(-c2cc3ccnc(OCCn4cncn4)c3n2CC2CC2)nn2cc(C(=O)N3C[C@H](N)C[C@@H](F)C3)ccc12 [Example 610, (2-(7-(2-(1H-1,2,4-Triazol-1-yl)ethoxy)-1-(cyclopropylmethyl)-1H-pyrrolo[2,3-c]pyridin-2-yl)-3-methylpyrazolo[1,5-a]pyridin-6-yl)((3R,5R)-3-amino-5-fluoropiperidin-1-yl)methanone]"
3,1.56,"Cc1c(-c2cc3ccnc(OCCn4ccnc4C)c3n2CC2CC2)nn2cc(C(=O)N3C[C@H](N)C[C@@H](F)C3)ccc12 [Example 611, ((3R,5R)-3-Amino-5-fluoropiperidin-1-yl)(2-(1-(cyclopropylmethyl)-7-(2-(2-methyl-1H-imidazol-1-yl)ethoxy)-1H-pyrrolo[2,3-c]pyridin-2-yl)-3-methylpyrazolo[1,5-a]pyridin-6-yl)methanone]"
4,2.96,"Cc1c(-c2cc3ccnc(OCCn4ccnc4C)c3n2CC2CC2)nn2cc(C(=O)N3CCC[C@@H](N)C3)ccc12 [Example 612, (R)-(3-Aminopiperidin-1-yl)(2-(1-(cyclopropylmethyl)-7-(2-(2-methyl-1H-imidazol-1-yl)ethoxy)-1H-pyrrolo[2,3-c]pyridin-2-yl)-3-methylpyrazolo[1,5-a]pyridin-6-yl)methanone]"
5,0.25,"Cc1c(-c2cc3ccnc(OCCn4cnnc4)c3n2CC2CC2)nn2cc(C(=O)N3C[C@H](N)C[C@@H](F)C3)ccc12 [Example 613, (2-(7-(2-(4H-1,2,4-Triazol-4-yl)ethoxy)-1-(cyclopropylmethyl)-1H-pyrrolo[2,3-c]pyridin-2-yl)-3-methylpyrazolo[1,5-a]pyridin-6-yl)((3R,5R)-3-amino-5-fluoropiperidin-1-yl)methanone]"
6,0.02,"Cc1c(-c2cc3ccnc(OCCn4ccnc4)c3n2CC2CC2)nn2cc(C(=O)N3C[C@H](N)C[C@@H](F)C3)ccc12 [Example 616, (2-(7-(2-(1H-Imidazol-1-yl)ethoxy)-1-(cyclopropylmethyl)-1H-pyrrolo[2,3-c]pyridin-2-yl)-3-methylpyrazolo[1,5-a]pyridin-6-yl)((3R,5R)-3-amino-5-fluoropiperidin-1-yl)methanone]"
7,0.01,"Cc1c(-c2cc3ccnc(OCCn4ccnc4)c3n2CC2CC2)nn2cc(C(=O)N3CCC[C@@H](N)C3)ccc12 [Example 617, (R)-(2-(7-(2-(1H-lmidazol-1-yl)ethoxy)-1-(cyclopropylmethyl)-1H-pyrrolo[2,3-c]pyridin-2-yl)-3-methylpyrazolo[1,5-a]pyridin-6-yl)(3-aminopiperidin-1-yl)methanone]"
8,0.45,"COc1cc(C(=O)N2C[C@H](N)C[C@@H](F)C2)cn2nc(-c3cc4ccnc(OCCn5cnnc5)c4n3C)c(C)c12 [Example 620, (2-(7-(2-(4H-1,2,4-Triazol-4-yl)ethoxy)-1-methyl-1H-pyrrolo[2,3-c]pyridin-2-yl)-4-methoxy-3-methylpyrazolo[1,5-a]pyridin-6-yl)((3R,5R)-3-amino-5-fluoropiperidin-1-yl)methanone]"
9,0.14,"COc1cc(C(=O)N2C[C@H](N)C[C@@H](F)C2)cn2nc(-c3sc4cccc(-c5cnn(CCO)c5)c4c3CC3CC3)c(C)c12 [Example 621, ((3R,5R)-3-Amino-5-fluoropiperidin-1-yl)(2-(3-(cyclopropylmethyl)-4-(1-(2-hydroxyethyl)-1H-pyrazol-4-yl)benzo[b]thiophen-2-yl)-4-methoxy-3-methylpyrazolo[1,5-a]pyridin-6-yl)methanone]"

# Target: recombinant human PAD4 (Homo sapiens (Human), UniProt Q9UM07)
# Test: RFMS Human PAD4 Functional Assay 2
# Format: biochemical
# Settings: RFMS assay 2; 35 nM recombinant human PAD4, 500 μM TSTGGRQGSHH peptide, 2 mM CaCl2, room temperature 30 minutes; read-out: hPAD4 RFMS IC50
# Method: RFMS Human PAD4 Functional Assay 2: Compound Preparation: • Stock compounds were dissolved and stored in 100% DMSO. Compound solutions were prepared via serial dilution at 3-fold intervals in DMSO with top compound concentration at 20 μM in each assay. 0.25 μl of compound solution was transferred from the compound plate to the assay plate by using an acoustic dispenser. Final Assay Conditions: • Total reaction volume: 25 μl • Assay buffer: […] pH 7.4, 200 mM NaCl, 2 mM CaCl2, 5 mM DTT • 35 nM recombinant human PAD4 • 500 μM TSTGGRQGSHH peptide • […] DMSO • Stop solution: 10% formic acid
# Reaction mixtures were incubated at room temperature for 30 minutes. 10 μl each of the reaction mixtures was then mixed with 40 μl of 10% formic acid in a microtiter plate. The plate was frozen at −80° C. before shipping out on dry ice for RapidFire mass spectroscopy analysis.
# Thawed samples were loaded onto the Rapid Fire 300 system (Agilent) wherein they were first sipped for 250 ms and then loaded onto an Agilent “C” (C18) cartridge using a mobile phase of water containing 0.09% formic acid/0.01% trifluoroacetic acid for 3000 ms desalting flowing at a rate of 1.5 ml/min. Once the samples were loaded and washed, a mobile phase of acetonitrile containing 0.09% formic acid/0.01% trifluoroacetic acid was used to elute the samples directly onto a Sciex API4000 triple quadrupole mass spectrometer for 3000 ms at a flow rate of 1.25 ml/min.
# MRM transitions for substrate and product were monitored in positive ESI mode at m/z=562.3/969.7 and m/z=562.8/541.3 respectively. The dwell time for each transition was set at 100 ms, and the ESI voltage was used at 5500 with a source temperature of 650° C. Extracted ion peaks for each transition were integrated using the Rapid Fire Integrator software.
# recombinant human PAD4, sequence (Q9UM07 whole entry): as above
row,Structure (SMILES),IC50 [µM]
1,"COc1cc(C(=O)N2C[C@H](N)C[C@@H](F)C2)cc2oc(-c3cc4cccnc4n3CC3CC3)c(CCO)c12 [Example 629, ((3R,5R)-3-amino-5-fluoropiperidin-1-yl)(2-(1-(cyclopropylmethyl)-1H-pyrrolo[2,3-b]pyridin-2-yl)-3-(2-hydroxyethyl)-4-methoxybenzofuran-6-yl)methanone]",0.785
2,"COc1cc(C(=O)N2C[C@H](N)C[C@@H](F)C2)cc2oc(-c3cc4cccc(OCC5CNC(=O)C5)c4n3CC3CC3)c(CCO)c12 (stereo partly drawn) [Example 633, 4-(((2-(6-((3R,5R)-3-amino-5-fluoropiperidine-1-carbonyl)-3-(2-hydroxyethyl)-4-methoxybenzofuran-2-yl)-1-(cyclopropylmethyl)-1H-indol-7-yl)oxy)methyl)pyrrolidin-2-one]",0.179

# Second part, the compound after the results:
row,IC50 [µM],Structure (SMILES)
1,1.2,"COc1cc(C(=O)N2CCC[C@@H](N)C2)cc2sc(-c3cc4ccccc4n3CC3CC3)c(CCO)c12 [Example 622, (R)-(3-aminopiperidin-1-yl)(2-(1-(cyclopropylmethyl)-1H-indol-2-yl)-3-(2-hydroxyethyl)-4-methoxybenzo[b]thiophen-6-yl)methanone]"
2,0.395,"COc1cc(C(=O)N2C[C@H](N)C[C@@H](F)C2)cc2sc(-c3cc4ccccc4n3CC3CC3)c(CCO)c12 [Example 623, ((3R,5R)-3-amino-5-fluoropiperidin-1-yl)(2-(1-(cyclopropylmethyl)-1H-indol-2-yl)-3-(2-hydroxyethyl)-4-methoxybenzo[b]thiophen-6-yl)methanone]"
3,0.383,"COc1ccc2cc(-c3sc4cc(C(=O)N5C[C@H](N)C[C@@H](F)C5)cc(OC)c4c3CCO)n(CC3CC3)c2c1 [Example 624, ((3R,5R)-3-amino-5-fluoropiperidin-1-yl)(2-(1-(cyclopropylmethyl)-6-methoxy-1H-indol-2-yl)-3-(2-hydroxyethyl)-4-methoxybenzo[b]thiophen-6-yl)methanone]"
4,2.04,"COc1cc(C(=O)N2CCC[C@@H](N)C2)cc2sc(-c3cc4ccccc4n3CC3CC3)c(CCN)c12 [Example 625, (R)-(3-(2-aminoethyl)-2-(1-(cyclopropylmethyl)-1H-indol-2-yl)-4-methoxybenzo[b]thiophen-6-yl)(3-aminopiperidin-1-yl)methanone]"
5,0.849,"Cc1c(-c2cc3ccccc3n2CC2CC2)sc2cc(C(=O)N3CCC[C@@H](N)C3)cc(CCO)c12 [Example 626, (R)-(3-aminopiperidin-1-yl)(2-(1-(cyclopropylmethyl)-1H-indol-2-yl)-4-(2-hydroxyethyl)-3-methylbenzo[b]thiophen-6-yl)methanone]"
6,0.879,"Cc1c(-c2cc3ccccc3n2CC2CC2)sc2cc(C(=O)N3CCC[C@@H](N)C3)cc(CO)c12 [Example 627, (R)-(3-Aminopiperidin-1-yl)(2-(1-(cyclopropylmethyl)-1H-indol-2-yl)-4-(hydroxymethyl)-3-methylbenzo[b]thiophen-6-yl)methanone]"
7,0.322,"COc1ccc2cc(-c3oc4cc(C(=O)N5C[C@H](N)C[C@@H](F)C5)cc(OC)c4c3CCO)n(CC3CC3)c2c1 [Example 628, ((3R,5R)-3-Amino-5-fluoropiperidin-1-yl)(2-(1-(cyclopropylmethyl)-6-methoxy-1H-indol-2-yl)-3-(2-hydroxyethyl)-4-methoxybenzofuran-6-yl)methanone]"
8,0.288,"COc1cc(C(=O)N2C[C@H](N)C[C@@H](F)C2)cc2oc(-c3cc4ccccc4n3CC3CC3)c(CCO)c12 [Example 630, ((3R,5R)-3-amino-5-fluoropiperidin-1-yl)(2-(1-(cyclopropylmethyl)-1H-indol-2-yl)-3-(2-hydroxyethyl)-4-methoxybenzofuran-6-yl)methanone]"
9,7.58,"CN[C@@H]1C[C@@H](F)CN(C(=O)c2cc(OC)c3c(CCO)c(-c4cc5ccccc5n4CC4CC4)oc3c2)C1 [Example 631, (2-(1-(cyclopropylmethyl)-1H-indol-2-yl)-3-(2-hydroxyethyl)-4-methoxybenzofuran-6-yl)((3R,5R)-3-fluoro-5-(methylamino)piperidin-1-yl)methanone]"
10,0.327,"COc1cc(C(=O)N2C[C@H](N)C[C@@H](F)C2)cc2oc(-c3cc4cccc(OC)c4n3CC3CC3)c(CCO)c12 [Example 632, ((3R,5R)-3-amino-5-fluoropiperidin-1-yl)(2-(1-(cyclopropylmethyl)-7-methoxy-1H-indol-2-yl)-3-(2-hydroxyethyl)-4-methoxybenzofuran-6-yl)methanone]"
